# According to US20260258050A1, “IMMUNOMODULATOR” (HITGEN INC., priority 2023, published 2026):
# Tests used:
# Human IL-17AF = target: T1, Human IL-17AF (Homo sapiens, UniProt Q16552+Q96PD4); experiment: IL-17AF ELISA (competitive ELISA, IL-17AF/IL-17Ra receptor-ligand binding); settings: human IL-17AF coated plate, human IL-17Ra, read-out: IC50, inhibitory activity of compounds on human IL-17AF
# T1 construct: purchased Sino Biological Inc. CT047-H08H
# T1 sequence (Q16552 24-155): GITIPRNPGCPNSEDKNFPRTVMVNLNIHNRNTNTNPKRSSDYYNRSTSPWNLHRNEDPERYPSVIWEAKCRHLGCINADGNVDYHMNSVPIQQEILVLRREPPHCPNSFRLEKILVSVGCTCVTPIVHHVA
# T1 sequence (Q96PD4 31-163): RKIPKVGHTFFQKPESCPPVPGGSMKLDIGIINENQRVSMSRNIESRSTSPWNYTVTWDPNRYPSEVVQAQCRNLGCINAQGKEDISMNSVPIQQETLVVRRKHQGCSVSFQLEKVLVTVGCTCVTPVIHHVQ
# Experimental: Experiment Example 2 IL-17AF ELISA
# The inhibitory effects of human IL-17AF inhibitors on receptor-ligand binding were quantitatively determined by a competitive ELISA.
# The ELISA was performed through the following steps.
# Human IL-17AF (Sino Biological Inc., Cat #CT047-H08H) was diluted with coating buffer (50 mM PBS, pH 7.4) to reach a concentration of 0.625 μg/ml. 100 μL of the resulting solution was added to each well of a 96-well plate, and the plate was incubated at 37° C. for 30 min. In the blank group, 100 μL of coating buffer was added instead of the IL-17AF solution.
# The plate was washed four times with 10 mM PBST (pH 7.4). 200 μL was used per well for each wash. After the final wash, the plate was tapped dry on absorbent paper.
# Fresh 5% (w/v) skim milk solution was prepared before the experiment. For example, 5 grams of skim milk powder (Bio-Rad, Cat #170-6404) was completely dissolved in 100 mL of 10 mM PBST. 200 μL of the 5% (w/v) skim milk solution was added to each well, and the plate was incubated on a shaker at 25° C. for 30 min.
# (S4) Preparation of 100× to-be-Tested Compound Solutions
# During step (S3), the to-be-tested compound solutions were prepared. Each powdered compound was dissolved in dimethyl sulfoxide (DMSO) to reach a stock concentration of 10 mM. The to-be-tested compound solutions were then serially diluted four-fold with DMSO to obtain nine concentrations ranging from […].
# (S6) Pre-Incubation of IL-17AF with to-be-Tested Compound Solutions
# 89 μL of PBST and 1 μL of each of the to-be-tested compound solutions were added to each well and mixed. The plate was pre-incubated at 25° C. for 10 min. In the blank group and the control group, 1 μL of DMSO was added instead of the to-be-tested compound solutions.
# (S7) Incubation with Human IL-17Ra
# 10 μL of 100 nM IL-17Ra (Sino Biological Inc., Cat #10895-H03H) was added to each well, followed by incubation on a shaker at 25° C. for 30 min. The receptor solution was prepared in 10 mM PBST.
# (S9) Incubation with Horseradish Peroxidase-Conjugated Antibody
# 100 μL of mouse anti-Fc tag HRP-conjugated antibody (Sino Biological Inc., Cat #10702-MM01T-H) was added to each well. The plate was incubated on a shaker at 25° C. for 30 min. The antibody was diluted with 5% (w/v) skim milk solution at 1:5,000 (v/v).
# 100 μL of TMB substrate solution (BD, Cat #555214) was added to each well. Substrate A and substrate B were freshly mixed at a volume ratio of 1:1 before use. The plate was incubated in the dark at 25° C. for 5-15 min.
# (S12) Termination and Detection
# The color reaction was terminated by addition of 2.5 M HCl. Absorbance was measured at 450 nm using a BMG PHERStar microplate reader.
# (S13) Calculation of Half-Maximal Inhibitory Concentration (IC50)
# The relative percent residual activity at each compound concentration was calculated according to Equation 1. The IC50 value of each test compound was then calculated in GraphPad 6 using the equation for log(inhibitor) versus normalized response with variable slope, as shown in Equation 2.
# relative percent residual activity (%)=[(absorbance of sample−absorbance of blank group)/(absorbance of control group−absorbance of blank group)]%. Equation 1: […]
# The compounds prepared in the Examples were tested for IL-17AF inhibitory activity according to the above method.
# Human IL-17A [1] = target: T2, Human IL-17A (Homo sapiens, UniProt Q16552); experiment: IL-17A enzyme-linked immunosorbent assay (competitive ELISA, IL-17A/IL-17Ra receptor-ligand binding); set-up: purchased Sino Biological Inc. 12047-H07B; settings: human IL-17A coated plate, human IL-17Ra, read-out: IC50, inhibitory activity of compounds on human IL-17A
# T2 sequence (Q16552 20-155 limits assumed): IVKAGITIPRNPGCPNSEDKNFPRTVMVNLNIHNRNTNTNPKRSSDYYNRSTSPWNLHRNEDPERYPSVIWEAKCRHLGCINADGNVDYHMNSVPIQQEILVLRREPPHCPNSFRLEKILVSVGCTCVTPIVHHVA
# Outline: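 Competitive ELISA with plates coated with human IL-17A at 0.2 μg/ml, blocked with 5% skim milk. Compound pre-incubated with IL-17A 10 min at 25 °C, then 16 nM IL-17Ra stock added for 30 min. Bound receptor detected by anti-Fc HRP/TMB, A450. IC50 from variable-slope fit of blank-corrected residual activity.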
# Human IL-17A [2] = target: T2, Human IL-17A; experiment: Inhibition of human IL-17A protein-induced GROα/CXCL1 production in HT-29 cells; format: cell-based; set-up: purchased R&D 317-ILB; host or cells: added exogenously to HT-29 cells; settings: 30 ng/mL human IL-17A protein, 48 h, GROα in supernatant by ELISA kit, read-out: Inhibitory IC50 of compounds on HT-29 cell GROα/CXCL1
# Experimental: Experiment Example 3 Inhibition of Human IL-17A Protein-Induced GROα/CXCL1 Production in HT-29 Cells by Compounds
# This assay was conducted to evaluate the ability of the compounds to inhibit human IL-17A protein-induced production of the chemokine growth-regulated oncogene alpha/C-X-C motif chemokine ligand 1 (GROα/CXCL1) in HT-29 cells.
# Human colorectal adenocarcinoma epithelial HT-29 cells (Chengdu Zhongyuan Gongchuang Technology Co., Ltd.) were seeded into a 96-well plate at a density of 5×10^4 cells per well and were cultured overnight in an incubator at 37° C.
# 30 ng/mL of human IL-17A protein (R&D, #317-ILB) was mixed with gradient concentrations of the IL-17A small-molecule inhibitor, or with […] of a positive control IL-17A antibody (R&D, #AF-317-NA). These mixtures were incubated at 37° C. for 1 h and were then added to the plate. The mixtures were co-incubated with the HT-29 cells at 37° C. for 48 h. Thereafter, the level of GROα in the cell culture supernatant was determined using a GROα ELISA kit (Cisbio, #62HCXC1PEG).
# The inhibitory activity of each compound was expressed as the half-maximal inhibitory concentration (IC50) for inhibition of GROα/CXCL1 production in HT-29 cells.
Structure (SMILES),IC50 (Human IL-17AF) [nM],IC50 (Human IL-17A [1]) [nM],IC50 (Human IL-17A [2]) [nM]
[2H]C([2H])([2H])n1nccc1C(=O)N[C@H](C(=O)Nc1ccc2c(c1)COCCc1n[nH]c(C)c1-2)C(C1CC1)C1CC1 [compound 7],100 to 500,50 to 150,–
CCn1nccc1C(=O)N[C@H](C(=O)Nc1ccc2c(c1)COCCc1n[nH]c(C)c1-2)C1CCCCC1 [compound 8],100 to 500,50 to 150,–
Cc1[nH]nc2c1-c1cc(F)c(NC(=O)[C@@H](NC(=O)c3ccnn3CC3(F)CC3)C(C3CC3)C3CC3)cc1COCC2 [compound 79],–,50 to 150,100 to 500
COCCN1Cc2cc(NC(=O)[C@@H](NC(=O)c3ccnn3C3CC3)C(C3CC3)C3CC3)c(F)cc2-c2c(n[nH]c2C)CC1=O [compound 139],100 to 500,–,–
Cc1[nH]nc2c1-c1cc(F)c(NC(=O)[C@@H](NC(=O)c3ccnn3CCCF)C(C3CC3)C3CC3)cc1CN(CC(F)F)C(=O)C2 [compound 172],–,≤ 50,≤ 100
Cc1[nH]nc2c1-c1cc(F)c(NC(=O)[C@@H](NC(=O)c3ccnn3C(C)C)C(C3CC3)C3CC3)cc1CN(C1CCC(F)(F)CC1)CC2 [compound 175],–,≤ 50,≤ 100
Cc1[nH]nc2c1-c1cc(F)c(NC(=O)[C@@H](NC(=O)c3conc3C(C)C)C(C3CC3)C3CC3)cc1CN(CC(F)F)CC2 [compound 180],–,≤ 50,≤ 100
Cc1[nH]nc2c1-c1cc(F)c(NC(=O)[C@@H](NC(=O)c3ccnn3CCCF)C(C3CC3)C3CC3)cc1CN(CC(F)F)CC2 [compound 181],–,≤ 50,≤ 100
Cc1[nH]nc2c1-c1cnc(NC(=O)[C@@H](NC(=O)c3ccnn3C(C)C)C(C3CC3)C3CC3)cc1CN(Cc1ccccc1)CC2 [compound 184],100 to 500,–,–
Cc1[nH]nc2c1-c1cc(F)c(NC(=O)[C@@H](NC(=O)c3ccnn3C(C)C)C(C3CC3)C3CC3)cc1CN(Cc1ccccc1)CC2 [compound 185],100 to 500,–,–
Cc1[nH]nc2c1-c1cnc(NC(=O)[C@@H](NC(=O)c3ccnn3C(C)C)C(C3CC3)C3CC3)cc1CN(C1CCC1)C(=O)C2 [compound 197],–,≤ 50,≤ 100
Cc1[nH]nc2c1-c1cnc(NC(=O)[C@@H](NC(=O)c3ccnn3C3CC3)C(C3CC3)C3CC3)cc1CN(C1CC1)CC2 [compound 219],–,≤ 50,≤ 100
CC(C)=C(F)C(=O)N[C@H](C(=O)Nc1cc2c(cc1F)-c1c(n[nH]c1C)CCOC2)C(C1CC1)C1CC1 [compound 232],–,≤ 50,≤ 100
C=C(F)C(=O)N[C@H](C(=O)Nc1cc2c(cc1F)-c1c(n[nH]c1C)CCOC2)C(C1CC1)C1CC1 [compound 233],–,≤ 50,≤ 100
CC(C)=C(F)C(=O)N[C@H](C(=O)Nc1cc2c(cn1)-c1c(n[nH]c1C)CCOC2)C(C1CC1)C1CC1 [compound 244],–,≤ 50,≤ 100
C=C(F)C(=O)N[C@H](C(=O)Nc1cc2c(cn1)-c1c(n[nH]c1C)CCOC2)C(C1CC1)C1CC1 [compound 245],–,≤ 50,≤ 100

# The next lines start with the values.
IC50 (Human IL-17AF) [nM],IC50 (Human IL-17A [1]) [nM],IC50 (Human IL-17A [2]) [nM],Structure (SMILES)
100 to 500,≤ 50,–,"CCn1nccc1C(=O)N[C@H](C(=O)Nc1cc2c(cc1F)-c1c(n[nH]c1C)CC(C)OC2)C(C1CC1)C1CC1 (single isomer, unassigned) [compound 119a]"
100 to 500,≤ 50,–,"CCn1nccc1C(=O)N[C@H](C(=O)Nc1cc2c(cc1F)-c1c(n[nH]c1C)CC(C)OC2)C(C1CC1)C1CC1 (single isomer, unassigned) [compound 119b]"
100 to 500,≤ 50,–,"Cc1[nH]nc2c1-c1cc(F)c(NC(=O)[C@@H](NC(=O)c3ccnn3C(C)C)C(C3CC3)C3CC3)cc1CN(C(C)C(F)(F)F)C(=O)C2 (single isomer, unassigned) [compound 186b]"
100 to 500,≤ 50,–,CCn1nccc1C(=O)N[C@H](C(=O)Nc1ccc2c(c1)COCCc1n[nH]c(C)c1-2)C1c2ccc(F)cc2OCC12CC2 (some centres unmarked) [compound 9]
–,≤ 50,100 to 500,Cc1[nH]nc2c1-c1cc(F)c(NC(=O)[C@@H](NC(=O)c3ccnn3C(C)C)[C@H]3CC[C@H](C)CC3)cc1COCC2 [compound 45]
–,≤ 50,100 to 500,CCn1nccc1C(=O)N[C@H](C(=O)Nc1cc2c(cc1F)-c1c(n[nH]c1C)CCOC2)C1CCCCC1 [compound 49]
–,≤ 50,100 to 500,CCn1nccc1C(=O)N[C@H](C(=O)Nc1cc2c(cn1)-c1c(n[nH]c1C)CCOC2)C(C1CC1)C1CC1 [compound 53]
–,≤ 50,100 to 500,Cc1[nH]nc2c1-c1cc(F)c(NC(=O)[C@@H](NC(=O)c3ccnn3CC3CC(F)(F)C3)C(C3CC3)C3CC3)cc1COCC2 [compound 64]
–,≤ 50,≤ 100,Cc1[nH]nc2c1-c1cc(F)c(NC(=O)[C@@H](NC(=O)c3ccnn3CCCN3CCOCC3)C(C3CC3)C3CC3)cc1COCC2 [compound 92]
–,≤ 50,100 to 500,Cc1[nH]nc2c1-c1cc(F)c(NC(=O)[C@@H](NC(=O)c3ccnn3C(C)C)C(C3CC3)C3CC3)cc1CCCC2 [compound 130]
–,≤ 50,100 to 500,CCN1CCc2n[nH]c(C)c2-c2cc(F)c(NC(=O)[C@@H](NC(=O)c3ccnn3CC)C(C3CC3)C3CC3)cc2C1 [compound 157]
–,≤ 50,≤ 100,Cc1[nH]nc2c1-c1cc(F)c(NC(=O)[C@@H](NC(=O)c3conc3C(C)C)C(C3CC3)C3CC3)cc1CN(CC(F)F)C(=O)C2 [compound 171]
